Laboratory results published in patent publication US20200093932A1, “TREATMENT OF CANCER” (BlueLink Pharmaceuticals, Inc., priority 2016, published 2020).

How the values were obtained:
Format in all cases: in vivo
[1] = system: B16.F10 mouse melanoma tumor model; assay: Example 2: CRLX101 with INCB-024360, tumor growth inhibition and delay
Experimental: On Day 1, B16.F10 cells, passage 5, were suspended in DMEM (Dulbecco's Modified Eagle Medium) and implanted subcutaneously (SC) in mice. When the mean tumor volume reached 60 mm^3, the mice were randomized into study groups and given one of the following treatments: • a control vehicle (20% DMSO/7.5% propylene glycol/5% Tween 80/67.5% PBS) administered IP bid for 13 days, from Day 5 to Day 17, with a dose volume of 10 mL/kg • CRLX101 administered IV at 6 mg/kg q7dx2, i.e. on Day 5 and Day 12 at a dose volume of 10 mL/kg as monotherapy and in combination • INCB-024360 (lot #01, SelleckChem, Houston, Tex.) 10 mg/mL in 20% DMSO/[…]/5% Tween 80/67.5% PBS. The dose was 100 mg/kg administered PO twice every day with a dose volume of 10 mL/kg for 13 days, from Day 5 to […] post tumor implantation as a monotherapy and in combination with CRLX101
(§1) Tumor volumes were measured 3 times every week using the equation (width*width*length)/2, in mm^3. Tumor growth inhibition (TGI) was determined by comparing the mean tumor volume of the treated group with the mean tumor volume of the control group, as the decrease in tumor volume of the treated group as a percent of total tumor volume of the control group. The equation to calculate TGI is (1-(treated volume/control volume))*100.
(§2) Tumor growth delay (TGD) was determined as the number of days between when the control group reached the tumor volume endpoint and when the treated group reached the tumor volume endpoint.

[2] = system: B16.F10 mouse melanoma tumor model; assay: Example 3: CRLX101 with Indoximod, tumor growth inhibition and delay
Experimental: On Day 1, B16.F10 cells, passage 2, were suspended in DMEM (Dulbecco's Modified Eagle Medium) and implanted subcutaneously (SC) in mice. When the mean tumor volume reached 69 mm^3, the mice were randomized into study groups and given one of the following treatments: • a control vehicle (drinking water with the sweetening agent Equal™ added (2 g/L)) was included in the study from Day 7 to Day 19 post tumor implantation. • CRLX101 administered IV at 6 mg/kg q7dx2, i.e. on Day 7 and Day 14 at a dose volume of 10 mL/kg as monotherapy and in combination. • Indoximod (lot # MKBQ8091V, Sigma-Aldrich) was administered in the drinking water at a concentration of 2 mg/mL from Day 7 to Day 19 post tumor implantation as a monotherapy and in combination with CRLX101. The water had Equal™ added (2 g/L).
Tumor volumes were measured 3 times every week using the equation (width*width*length)/2, in mm^3. The endpoint for tumor volume was 2000 mm^3. Tumor growth inhibition (TGI) was determined by comparing the mean tumor volume of the treated group with the mean tumor volume of the control group, as the decrease in tumor volume of the treated group as a percent of total tumor volume of the control group. […]
as §2

[3] = system: B16.F10 mouse melanoma tumor model; assay: Example 4: CRLX101 + NLG-919 analog versus Irinotecan + NLG-919 analog, tumor growth inhibition and delay; conditions: for Inhibit tumor growth?: B16.F10 SC tumors in mice, CRLX101 6 mg/kg IV q7dx2 (Day 6, 13), NLG-919 analog 12.5 mg/kg IP bid Day 6-19, Irinotecan 100 mg/kg q7dx2 (Day 6, 13); for TGI vs. Control (%): same dosing, relative to vehicle control
Experimental: On Day 1, B16.F10 cells, passage 3, were suspended in DMEM (Dulbecco's Modified Eagle Medium) and implanted subcutaneously (SC) in mice. […] The dose was 100 mg/kg q7dx2, i.e., administered at a dose volume of 10 mL/kg on Day 6 and Day 13 post tumor implantation as a monotherapy and in combination.
as §1, §2

[4] = system: B16.F10 mouse melanoma tumor model; assay: Example 1: CRLX101 with NLG-919 analog or INCB-024360 analog, tumor growth inhibition and delay
Experimental: On Day 1, B16.F10 cells, passage 3, were suspended in DMEM (Dulbecco's Modified Eagle Medium) and implanted subcutaneously (SC) in mice. […] The dose was 100 mg/kg administered PO twice every day with a dose volume of 10 mL/kg for 14 days, from Day 7 to Day 20 post tumor implantation as a monotherapy and in combination with CRLX101
as §1, §2

[5] = system: B16.F10 mouse melanoma tumor model; assay: Example 5: CRLX101 + NLG-919 analog versus anti-PD-1 antibody + NLG-919 analog, tumor growth inhibition and delay
Experimental: On Day 1, B16.F10 cells, passage 3, were suspended in DMEM (Dulbecco's Modified Eagle Medium) and implanted subcutaneously (SC) in mice.
Tumor volumes were measured 3 times every week using the equation (width*width*length)/2, in mm^3. Tumor growth inhibition (TGI) was determined by comparing the mean tumor volume of the treated group with the mean tumor volume of the control group, as the decrease in tumor volume of the treated group as a percent of total tumor volume of the control group. The equation to calculate TGI is (1−(treated volume/control volume))*100.
as §2

[6] = same dosing, vs vehicle when the control group reached the tumor volume endpoint

NS(=O)(=O)NCCNc1nonc1/C(=N/O)Nc1ccc(F)c(Br)c1 [INCB-024360]
Inhibit tumor growth? ([1]; B16.F10 SC tumors in mice, CRLX101 6 mg/kg IV q7dx2 (Day 5, 12), INCB-024360 100 mg/kg PO bid Day 5-18): did not inhibit tumor growth and No
TGD (Day) ([1]; same dosing, days between control and treated group reaching the tumor volume endpoint): no TGD
TGI vs. Control (%) [1, 6]: 20%

Cn1cc(C[C@@H](N)C(=O)O)c2ccccc21 [Indoximod]
Inhibit tumor growth? ([2]; B16.F10 SC tumors in mice, CRLX101 6 mg/kg IV q7dx2 (Day 7, 14), Indoximod 2 mg/mL in drinking water Day 7-19): did not inhibit tumor growth and No
TGI vs. Control (%) ([2]; same dosing, vs vehicle when the control group reached the tumor volume endpoint (2000 mm^3)): −49%

CCc1c2c(nc3ccc(OC(=O)N4CCC(N5CCCCC5)CC4)cc13)-c1cc3c(c(=O)n1C2)COC(=O)[C@]3(O)CC [Irinotecan]
Inhibit tumor growth? [3]: No
TGI vs. Control (%) [3]: −12%

OC(CC1c2ccccc2-c2cncn21)C1CCCCC1 (stereo not shown) [NLG-919 analog]
Inhibit tumor growth? ([4]; B16.F10 SC tumors in mice, CRLX101 6 mg/kg IV q7dx2 (Day 7, 14), NLG-919 analog 12.5 mg/kg IP bid Day 7-20, INCB-024360 analog 100 mg/kg PO bid Day 7-20): No
TGI vs. Control (%) ([4]; same dosing, mean tumor volume vs vehicle when the control group reached the tumor volume endpoint): 23%
Inhibit tumor growth? [3]: did not inhibit tumor growth and No
TGI vs. Control (%) [3]: 5%
Inhibit tumor growth? ([5]; B16.F10 SC tumors in mice, CRLX101 6 mg/kg IV q7dx2 (Day 6, 13), NLG-919 analog 12.5 mg/kg IP bid Day 6-19, anti-mouse PD-1 antibody 200 μg per mouse IP Day 6, 9, 13, 16): did not inhibit tumor growth and No
TGI vs. Control (%) [5, 6]: 15%
